In patent publication US8461328B2, “Tricyclic heterocyclic compounds, compositions and methods of use thereof” (Genentech, Inc., priority 2010, dated 2013):
Where a name gives a salt, the structure may show the parent alone. Read-outs that look alike come from different tables or passages of the source.

What was measured:
Format in all cases: biochemical
JAK2 = target: T1, JAK2 (Homo sapiens, UniProt O60674); test: JAK2 inhibition (Table 4); details: read-out: JAK2 Ki
T1 construct: made in house; host or cells: SF9 insect cells (baculovirus)

TYK2 = target: T2, TYK2 (Homo sapiens, UniProt P29597); test: TYK2 inhibition (Table 4)
T2 construct: made in house; host or cells: SF9 insect cells (baculovirus)
T2 sequence (P29597 873-1187): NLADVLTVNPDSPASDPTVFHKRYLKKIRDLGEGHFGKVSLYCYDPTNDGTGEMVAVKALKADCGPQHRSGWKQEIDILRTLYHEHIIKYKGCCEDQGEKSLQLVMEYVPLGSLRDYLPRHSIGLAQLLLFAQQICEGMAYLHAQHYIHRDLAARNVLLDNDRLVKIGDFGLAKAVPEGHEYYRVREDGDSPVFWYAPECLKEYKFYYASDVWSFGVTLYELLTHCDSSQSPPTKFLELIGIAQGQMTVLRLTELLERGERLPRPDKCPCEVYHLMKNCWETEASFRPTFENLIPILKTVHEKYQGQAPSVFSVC

JAK1 = target: T3, JAK1 (Homo sapiens, UniProt P23458); test: JAK1 inhibition (Table 4)
T3 construct: made in house; host or cells: SF9 insect cells (baculovirus)

JAK3 = target: T4, JAK3 (Homo sapiens, UniProt P52333); test: JAK3 inhibition (Table 4)
T4 construct: made in house; host or cells: SF9 insect cells (baculovirus)
T4 sequence (P52333 783-1124): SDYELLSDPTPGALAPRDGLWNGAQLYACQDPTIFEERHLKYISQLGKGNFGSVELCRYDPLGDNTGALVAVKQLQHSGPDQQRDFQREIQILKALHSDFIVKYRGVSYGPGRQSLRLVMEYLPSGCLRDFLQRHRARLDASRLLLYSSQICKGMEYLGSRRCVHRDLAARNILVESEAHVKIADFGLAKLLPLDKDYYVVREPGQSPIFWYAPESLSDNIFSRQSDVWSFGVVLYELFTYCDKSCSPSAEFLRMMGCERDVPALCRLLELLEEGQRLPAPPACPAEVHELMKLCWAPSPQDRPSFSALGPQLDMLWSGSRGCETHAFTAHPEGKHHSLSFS

T3 sequence (P23458 852-1154): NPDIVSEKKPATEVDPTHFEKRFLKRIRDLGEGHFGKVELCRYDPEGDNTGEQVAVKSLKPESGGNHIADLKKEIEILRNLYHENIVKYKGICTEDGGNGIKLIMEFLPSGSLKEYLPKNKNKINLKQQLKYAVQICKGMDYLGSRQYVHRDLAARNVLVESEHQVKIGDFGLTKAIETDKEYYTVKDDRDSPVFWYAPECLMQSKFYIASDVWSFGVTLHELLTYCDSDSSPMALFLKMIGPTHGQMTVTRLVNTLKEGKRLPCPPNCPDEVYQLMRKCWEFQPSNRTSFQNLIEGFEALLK
T1 sequence (O60674 812-1132): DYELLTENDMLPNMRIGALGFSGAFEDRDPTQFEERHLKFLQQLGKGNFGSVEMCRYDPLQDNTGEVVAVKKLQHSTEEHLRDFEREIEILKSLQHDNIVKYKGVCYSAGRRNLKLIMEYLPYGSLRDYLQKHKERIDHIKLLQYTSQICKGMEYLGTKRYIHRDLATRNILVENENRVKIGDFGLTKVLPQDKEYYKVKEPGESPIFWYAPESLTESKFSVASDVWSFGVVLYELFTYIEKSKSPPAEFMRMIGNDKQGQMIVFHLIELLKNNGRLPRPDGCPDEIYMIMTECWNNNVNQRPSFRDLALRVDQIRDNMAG

| Structure (SMILES) | Ki (JAK2) [nM] | Ki (TYK2) [nM] | Ki (JAK1; read-out: JAK1 Ki) [nM] | Ki (JAK3; read-out: JAK3 Ki) [nM] | Ki (JAK1; JAK1 Ki) [nM] | Ki (JAK3; JAK3 Ki) [nM] |
| --- | --- | --- | --- | --- | --- | --- |
| C[C@@H](O)c1nc2cnc3[nH]ccc3c2n1C1CCNCC1(F)F (single isomer, unassigned) [Example 939] | 18.1 | 7.2 | 0.68 | 5.58 |  |  |
| Cc1nc2cnc3[nH]ccc3c2n1C1CCN(Cc2ccccc2)CC1C (racemic) [Example 151, Racemic 1-(1-benzyl-3-methyl-piperidin-4-yl)-2-methyl-1,6-dihydro-1,2,3,5,6-tetraaza-as-indacene dihydrochloride salt] | 2.27 | 31.2 | 1.78 | 13.5 |  |  |
| Cc1nc2cnc3[nH]ccc3c2n1C(C)C1CCCO1 (single isomer, unassigned) [Example 426, 2-Methyl-1-[1-(tetrahydro-furan-2-yl)-ethyl]-1,6-dihydro-1,3,5,6-tetraaza-as-indacene] | 56.7 | 335 | 59.6 | 26.2 |  |  |
| C[C@@H](O)c1nc2cnc3[nH]ccc3c2n1[C@H]1CCCO1 [Example 660, (R)-1-[(R)-1-(Tetrahydro-furan-2-yl)-1,6-dihydro-1,2,3,5,6-tetraaza-as-indacen-2-yl]-ethanol] | 1220 | 645 | 327 | 1050 |  |  |
| COc1ccc(CN2CCC[C@@H](n3cnc4cnc5[nH]ccc5c43)C2)cc1 [Example 46, 1-[(R)-1-(4-Methoxy-benzyl)-piperidin-3-yl]-1,6-dihydro-1,3,5,6-tetraaza-as-indacene] | 160 | 913 | 72.4 | 414 |  |  |
| FC(F)(F)c1nc2cnc3[nH]ccc3c2n1C1CCN(Cc2ccccc2)CC1 [Example 167, 1-(1-Benzyl-piperidin-4-yl)-2-trifluoromethyl-1,6-dihydro-1,2,3,5,6-tetraaza-as-indacene] | 14.1 | 820 | 10.4 | 6.48 |  |  |
| C[C@@H](O)c1nc2cnc3[nH]ccc3c2n1[C@H]1CCN(Cc2cnco2)C[C@H]1F [Example 704, 1-[1-(3-Fluoro-1-oxazol-5-ylmethyl-piperidin-4-yl)-1,6-dihydro-1,2,3,5,6-tetraaza-as-indacen-2-yl]-ethanol] | 56.7 | 138 | 2.45 | 12.8 |  |  |
| CNC(=O)OC1CCC(n2c(C)nc3cnc4[nH]ccc4c32)CC1 (stereo not shown) [Example 751, methyl-carbamic acid 4-(2-methyl-6H-1,3,5,6-tetraaza-as-indacen-1-yl)-cyclohexyl ester] | 27.9 | 83.9 | 7.83 | 79.4 |  |  |
| CS(=O)(=O)CC[C@H]1CC[C@H](n2c(CO)nc3cnc4[nH]ccc4c32)CC1 [Example 652, Trans {1-[4-(2-methanesulfonyl-ethyl)-cyclohexyl]-1,6-dihydro-1,2,3,5,6-tetraaza-as-indacen-2-yl}-methanol] | 4.38 | 3.7 | 0.81 | 39 |  |  |
| Cc1nc2cnc3[nH]ccc3c2n1C1CCC(NC(=O)N(C)CC(F)F)CC1 (stereo not shown) [Example 750, 1-(2,2-difluoro-ethyl)-1-methyl-3-[4-(2-methyl-6H-1,3,5,6-tetraaza-as-indacen-1-yl)-cyclohexyl]-urea] | 22.1 | 130 | 4.74 | 17.6 |  |  |
| N#CCCN1CCC(n2c(CCNC(=O)C3CC3)nc3cnc4[nH]ccc4c32)CC1 [Example 377, Cyclopropanecarboxylic acid (2-{1-[1-(2-cyano-ethyl)-piperidin-4-yl]-1,6-dihydro-1,3,5,6-tetraaza-as-indacen-2-yl}-ethyl)-amide] | 29.5 | 185 | 3.64 | 50.3 |  |  |
| COc1nc2cnc3[nH]ccc3c2n1C1CCN(CCC#N)CC1 [Example 655, 3-[4-(2-Methoxy-6H-1,2,3,5,6-tetraaza-as-indacen-1-yl)-piperidin-1-yl]-propionitrile] | 1.08 | 4.67 | 0.46 | 15.9 |  |  |
| N#CC[C@H]1CC[C@H](n2c(CO)nc3cnc4[nH]ccc4c32)CC1 [Example 645, Trans[4-(2-hydroxymethyl-6H-1,2,3,5,6-tetraaza-as-indacen-1-yl)-cyclohexyl]-acetonitrile] | 0.39 | 0.25 |  |  | 0.13 | 3.56 |
| FC(F)(F)CNC1CCC(n2cnc3cnc4[nH]ccc4c32)C1 (racemic) [Example 717, [3-(6H-1,3,5,6-tetraaza-as-indacen-1-yl)-cyclopentyl]-(2,2,2-trifluoro-ethyl)-amine] | 13.3 | 35 | 6.11 | 59.7 |  |  |
| CCOC(=O)NCCc1nc2cnc3[nH]ccc3c2n1C1CCN(CC)CC1(F)F (single isomer, unassigned) [Example 679, {2-[1-(1-Ethyl-3,3-difluoro-piperidin-4-yl)-1,6-dihydro-1,2,3,5,6-tetraaza-as-indacen-2-yl]-ethyl}-carbamic acid ethyl ester] | 55.5 | 413 | 7.45 | 27.7 |  |  |
| Cc1nc2cnc3[nH]ccc3c2n1[C@@H]1CC[C@@H](NC(C)CC#N)C1 (stereo partly drawn) [Example 725, 3-[(1R,3R)-3-(2-Methyl-6H-1,3,5,6-tetraaza-as-indacen-1-yl)-cyclopentylamino]-butyronitrile] | 49.5 | 211 | 22.1 | 32.5 |  |  |
| COC1CNCCC1n1nnc2cnc3[nH]ccc3c21 (racemic) [Example 536, 1-(3-Methoxy-piperidin-4-yl)-1,6-dihydro-1,2,3,5,6-pentaaza-as-indacene] | 61.2 | 235 | 32.5 | 1020 |  |  |

Now from value to compound:

| Ki (JAK2) [nM] | Ki (TYK2) [nM] | Ki (JAK1; read-out: JAK1 Ki) [nM] | Ki (JAK3; read-out: JAK3 Ki) [nM] | Ki (JAK1; JAK1 Ki) [nM] | Ki (JAK3; JAK3 Ki) [nM] | Structure (SMILES) |
| --- | --- | --- | --- | --- | --- | --- |
| 35.4 | 102 | 12.2 | 161 |  |  | N#Cc1ccc(N2CCC(n3cnc4cnc5[nH]ccc5c43)CC2)nc1 [Example 95, 4-(6H-1,3,5,6-Tetraaza-as-indacen-1-yl)-3,4,5,6-tetrahydro-2H-[1,2′]bipyridinyl-5′-carbonitrile] |
| 85.5 | 618 | 54.2 | 90.4 |  |  | N#CCCN1CCC(n2c(COCC3CCCC3)nc3cnc4[nH]ccc4c32)CC1 [Example 838, 3-[4-(2-Cyclopentylmethoxymethyl-6H-1,3,5,6-tetraaza-as-indacen-1-yl)-piperidin-1-yl]-propionitrile] |
| 19.5 | 101 | 17.2 | 24.6 |  |  | N#C[C@@H]1C[C@@H]1C(=O)N1CCC[C@@H](n2cnc3cnc4[nH]ccc4c32)C1 [Example 340, (1R,2S)-2-[(R)-3-(6H-1,3,5,6-Tetraaza-as-indacen-1-yl)-piperidine-1-carbonyl]-cyclopropanecarbonitrile] |
| 4.99 | 32 | 1.36 | 11 |  |  | N#CCC(=O)NC1CCC(n2cnc3cnc4[nH]ccc4c32)C1 (racemic) [Example 629, Racemic trans 2-cyano-N-[3-(6H-1,2,3,5,6-tetraaza-as-indacen-1-yl)-cyclopentyl]-acetamide] |
| 186 | 260 | 20.5 | 498 |  |  | CC(C)(C)OC(=O)N1CCC[C@@H](CN[C@H]2CC[C@H](n3cnc4cnc5[nH]ccc5c43)CC2)C1 [Example 566, trans (S)-3-{[4-(6H-1,3,5,6-Tetraaza-as-indacen-1-yl)-cyclohexylamino]-methyl}-piperidine-1-carboxylic acid tert-butyl ester] |
| 177 | 732 | 97.1 | 169 |  |  | N#CCCN1CCC(n2c(COC3CCCC3)nc3cnc4[nH]ccc4c32)CC1 [Example 844, 3-[4-(2-Cyclopentyloxymethyl-6H-1,3,5,6-tetraaza-as-indacen-1-yl)-piperidin-1-yl]-propionitrile] |
| 455 | 1830 | 45.7 | 3480 |  |  | CN1CCCCCC1C(=O)N1CCC(n2cnc3cnc4[nH]ccc4c32)CC1 (racemic) [Example 953, (1-Methyl-azepan-2-yl)-[4-(6H-1,3,5,6-tetraaza-as-indacen-1-yl)-piperidin-1-yl]-methanone] |
| 30.8 | 234 | 16.5 | 37.1 |  |  | c1cncc(CN2CCCC(n3cnc4cnc5[nH]ccc5c43)CC2)c1 (racemic) [Example 487, 1-(1-Pyridin-3-ylmethyl-azepan-4-yl)-1,6-dihydro-1,3,5,6-tetraaza-as-indacene] |
| 181 | 608 | 56 | 1160 |  |  | NC1CC(n2cnc3cnc4[nH]ccc4c32)C1 (stereo not shown) [Example 320, 3-(6H-1,3,5,6-Tetraaza-as-indacen-1-yl)-cyclobutylamine] |
| 81.8 | 106 | 13.6 | 194 |  |  | c1cc2c(ncc3ncn(C4CCCCNC4)c32)[nH]1 (single isomer, unassigned) [Example 110a, 1-Azepan-3-yl-1,6-dihydro-1,2,3,5,6-tetraaza-as-indacene] |
| 36.1 | 325 | 36.6 | 428 |  |  | CC(C)(C#N)C(=O)N1CCC(n2cnc3cnc4[nH]ccc4c32)CC1 [Example 451, 2,2-Dimethyl-3-oxo-3-[4-(6H-1,3,5,6-tetraaza-as-indacen-1-yl)-piperidin-1-yl]-propionitrile] |
